{
  "source": "paper PMC8082182",
  "about": "(Frontiers in Pharmacology, 2021)",
  "key": {"[1]": {"assay": "Unified one-compartment population PK model (NONMEM, FOCE with interaction) for Chinese adults and pediatric patients", "source_text": "(§1) The TDM concentration data of therapeutic drugs in adults and pediatric patients with Gram-positive bacterial infection were collected.\n(§2) The population pharmacokinetics model was composed of a structural model and random effect models using the first-order conditional estimation method (FOCE) with interaction. Demographic variables (e.g., gender, age, weight, height, body mass index [BMI]), renal function descriptors (serum creatinine, eGFR, creatinine clearance rate [CLCr], and albumin, etc.), and disease conditions (e.g., surgery or injury, chronic kidney disease, diabetes, cancer) were tested as potential covariates. Covariates were evaluated using the stepwise forward-selection method and backward elimination. The population PK model for adults and pediatric patients were evaluated respectively and the model parameters were compared. In order to unify the population PK model for adults and pediatric patients, the datasets were merged and the covariates were consolidated and reevaluated. […] The established population PK model was used to simulate individual PK parameters (Cmin, Cmax, AUC0–24) by Bayesian feedback method for the further PK/PD evaluation."}, "[2]": {"details": "for AUC0–24, median (IQR) / Cmax,ss, Median (IQR): Improved patients", "source_text": "as §1, §2"}, "[3]": {"details": "Pulmonary, Not improved patients, IQR not reported for n < 5"}},
  "note": "Where two headings read alike, the source gives them in different places.",
  "data": [
    {"smiles": "CN[C@H](CC(C)C)C(=O)N[C@H]1C(=O)N[C@@H](CC(N)=O)C(=O)N[C@H]2C(=O)N[C@H]3C(=O)N[C@H](C(=O)N[C@H](C(=O)O)c4cc(O)cc(O)c4-c4cc3ccc4O)[C@H](O)c3ccc(c(Cl)c3)Oc3cc2cc(c3O[C@@H]2O[C@H](CO)[C@@H](O)[C@H](O)[C@H]2O[C@H]2C[C@](C)(N)[C@H](O)[C@H](C)O2)Oc2ccc(cc2Cl)[C@H]1O", "note": "[vancomycin]", "values": [
      {"measurement": "Age effect on V (θ5)", "setting": "[1]; bootstrap median", "result": 0.331},
      {"measurement": "Body weight effect on V (θ6)", "setting": "[1]; bootstrap median", "result": 0.347},
      {"measurement": "V (θ2)", "setting": "[1]; bootstrap median", "result": 44.8, "unit": "L"},
      {"measurement": "CL (θ1)", "setting": "[1]; bootstrap median, 1,000 times", "result": 3.82, "unit": "L/h"},
      {"measurement": "Age effect on V (θ5)", "setting": "[1]; final model estimate, exponent", "result": 0.33},
      {"measurement": "Body weight effect on V (θ6)", "setting": "[1]; final model estimate, exponent", "result": 0.349},
      {"measurement": "V (θ2)", "setting": "[1]; final model estimate, typical value at AGE 55, WT 58.25", "result": 44.7, "unit": "L"},
      {"measurement": "CL (θ1)", "setting": "[1]; final model estimate, typical value at CLCr 90.28, WT 58.25, adults and pediatric patients", "result": 3.83, "unit": "L/h"},
      {"measurement": "AUC0–24, median (IQR)", "setting": "[2]; Bloodstream", "result": "215.9 (172.33, 305.85) hr*mg/L"},
      {"measurement": "Cmax,ss, Median (IQR)", "setting": "[2]; Bloodstream", "result": "23.32 (17.20, 26.57) mg/L"},
      {"measurement": "Cmax,ss, Median", "setting": "[2]; Bloodstream, Not improved patients, IQR not reported for n < 5", "result": 26020, "unit": "ng/mL"},
      {"measurement": "AUC0–24, median (IQR)", "setting": "[2]; Central nerve system", "result": "303.3 (204.97, 386.18) hr*mg/L"},
      {"measurement": "Cmax,ss, Median (IQR)", "setting": "[2]; Central nerve system", "result": "28.11 (24.75, 30.66) mg/L"},
      {"measurement": "Cmax,ss, Median", "setting": "[2]; Central nerve system, Not improved patients, IQR not reported for n < 5", "result": 21410, "unit": "ng/mL"},
      {"measurement": "Cmax,ss, Median (IQR)", "setting": "[2]; Endocarditis", "result": "21.50 (17.20, 23.70) mg/L"},
      {"measurement": "AUC0–24, median (IQR)", "setting": "[2]; Overall", "result": "217.5 (172.87, 286.34) hr*mg/L"},
      {"measurement": "AUC0–24, median (IQR)", "setting": "[2]; Pulmonary", "result": "219.2 (183.44, 266.38) hr*mg/L"},
      {"measurement": "Cmax,ss, Median (IQR)", "setting": "[2]; Pulmonary", "result": "20.24 (16.24, 28.07) mg/L"},
      {"measurement": "Cmax,ss, Median", "setting": "[2]; [3]", "result": 22600, "unit": "ng/mL"},
      {"measurement": "Cmin,ss, Median", "setting": "[2]; [3]", "result": 3320, "unit": "ng/mL"},
      {"measurement": "AUC0–24, median (IQR)", "setting": "[2]; Urinary tract", "result": "196.2 (145.03, 287.92) hr*mg/L"},
      {"measurement": "Cmax,ss, Median (IQR)", "setting": "[2]; Urinary tract", "result": "22.08 (15.80, 25.63) mg/L"},
      {"measurement": "Cmax,ss, Median", "setting": "[2]; Urinary tract, Not improved patients, IQR not reported for n < 5", "result": 29180, "unit": "ng/mL"}
    ]}
  ]
}
